Earlier results, collected in patent US20170056332A1, “HEMORRHOID PREPARATION AND SHEETS” (C.B. Fleet Company, Incorporated, priority 2015, published 2017).

Settings: in the presence of menthol; Obata et al. 1990

CC1CCC(C(C)C)C(O)C1 (stereo not shown) [Menthol]
percutaneous absorption of hydrophilic diclofenac sodium: substantially enhanced
